Assay results published in patent EP4702986A1, “POLYPEPTIDE AND USE THEREOF” (Biocells (Beijing) Biotech Co., Ltd., priority 2023, dated 2024).
Numbered stars: 1 amine (or outer) side, 2 acyl side, 3 side chain; on linkers, the order of the positions; unused ones are H or OH. Side chains are listed from the residue outwards. Ends that are not written are not given here. Peptide text beside a SMILES is read from it. * marks the point of attachment. X1 = C[C@H](NC(=O)[C@@H]1CCCN1C(=O)[C@@H](N)CSC1CC(=O)N(CCC(=O)*)C1=O)C(=O)N[C@@H](CCCCN)C(=O)O; γGlu = O=C(O)[C@H](CCC(=O)[*:2])N[*:1]; Fumaroyl = O=C(O)/C=C/C(=O)*; Suc = O=C(CCC(=O)[*:2])[*:1]; Lauroyl = CCCCCCCCCCCC(=O)*; AEEA = NCCOCCOCC(=O)O

Biological target: T1, dog ETB receptor (Canis lupus familiaris, UniProt P56497)
T1 construct: expressed in transfected cells
T1 sequence (P56497 27-442): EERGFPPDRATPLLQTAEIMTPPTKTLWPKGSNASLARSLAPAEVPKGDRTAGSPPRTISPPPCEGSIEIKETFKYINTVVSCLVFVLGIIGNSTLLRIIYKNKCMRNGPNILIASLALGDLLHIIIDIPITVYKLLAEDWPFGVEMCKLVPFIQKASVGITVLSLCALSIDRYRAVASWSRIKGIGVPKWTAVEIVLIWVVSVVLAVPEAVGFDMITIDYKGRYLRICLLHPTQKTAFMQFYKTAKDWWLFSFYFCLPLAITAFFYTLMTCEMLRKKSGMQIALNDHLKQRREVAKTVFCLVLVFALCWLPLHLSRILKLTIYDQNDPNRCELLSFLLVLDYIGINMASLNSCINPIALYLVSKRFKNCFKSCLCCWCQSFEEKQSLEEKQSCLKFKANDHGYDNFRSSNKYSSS
Assay: Determination of EC50s of polypeptides against dog ETB receptor
Format: cell-based
Conditions: Table 7, dog ETB receptor; for EC50: read-out: DETAR Agonist Activity EC50
Procedure: 293T-17 cells were seeded at a density of 650,000 cells per well in a 6-well plate and cultured overnight in an incubator at 37°C and 5% CO2. Afterward, the cells were transfected with an expression vector, PCDNA3.1-hETB which contained a human ETB receptor gene, at a plasmid concentration of 2.5 µg per well. The cells were further cultured for 48 hours, and green fluorescence expression was observed under a fluorescence microscope. The cells were then digested with trypsin and counted. The activity of compounds on the human ETB receptor was determined with the IP-One Gq kit from Cisbio Bioassays. The cells were suspended in Stim Buffer provided in the kit and the cell suspension was added to a 96-well detection plate at 7 µL cell suspension (containing 30,000 cells) per well. The polypeptides to be tested (prepared according to the Preparation Example of the invention) were diluted in Stim B to obtain a gradient of 11 concentration points. For each concentration point, the polypeptides to be tested were dissolved in Stim B to be at a concentration of 2×, and added at 7 µL to the test cells, while 7 µL of PBS solution was added to the cells in the negative control wells. The plate was sealed and incubated at 37°C for 1 hour in a cell culture incubator. Detection wells, positive control wells containing human endothelin ET1 (ET1: […] (C1-C15,C3-C11)), and PBS control wells were each added with 3 µL of IP1 d2 working solution and 3 µL of IP1 Tb cryptotate Antibody working solution. The plate was then sealed and incubated in the dark at room temperature (25°C±5°C) for 1 hour. The plate seal was removed, and the […] at 665 nm and 620 nm was measured with an ID5 microplate reader. The ratio of the acceptor emission signal to the donor emission signal, i.e., (signal at 665 nm/signal at 620 nm)×10^4, was calculated for each well. With F representing the average value of values of signal at 665 nm/signal at 620 nm for the test samples at various concentrations, a scatterplot was plotted, where the abscissa represented the F value, and the ordinate represented the logarithmic value of the peptide concentration. A curve was fitted with an appropriate method to calculate EC50 values of the polypeptides against the human ETB receptor. Another method was provided for fitting a curve where activation rate of the test polypeptides at each concentration relative to the positive control sample human endothelin ET1 was calculated first with the method in Example 1, and a scatterplot was plotted, where the abscissa represented the activation rate, and the ordinate represented the logarithmic value of the polypeptide concentration. A curve was fitted with an appropriate method to calculate the EC50 values of the polypeptides against the human ETB receptor.
The process is the same as that in Example 3, except that the transfected plasmid was expression vector PCDNA3.1-DETB which contained a dog ETB receptor gene. EC50 values of the polypeptide against the dog ETB receptor were calculated (see Figures 8-10). The sequence of the dog endothelin receptor B (NCBI accession number: NM_001010943.2).

Row | Molecule | EC50 | DETAR Agonist Activity, % (@10nM) | DETAR Agonist Activity, % (@100nM)
1 | CCCCCCCCCCCC(=O)N[C@@H](CCC(=O)NCCOCCOCC(=O)NCCCC[C@H](NC(=O)[C@H](Cc1c[nH]cn1)NC(=O)[C@H](C)NC(=O)[C@H](Cc1ccccc1)NC(=O)[C@H](Cc1ccc(O)cc1)NC(=O)[C@@H](NC(=O)[C@H](C)NC(=O)[C@H](CCC(=O)O)NC(=O)[C@H](CCC(=O)O)NC(=O)[C@H](CC(=O)O)NC(=O)/C=C/C(=O)O)C(C)C)C(=O)N[C@@H](CC(=O)O)C(=O)N[C@H](C(=O)N[C@H](C(=O)N[C@@H](Cc1c[nH]c2ccccc12)C(=O)O)[C@@H](C)CC)C(C)C)C(=O)O [BX229-Na] (Fumaroyl-DEEAVYFAHK([AEEA-γGlu-Lauroyl])DVIW-OH) | 17.9 nM | – | –
2 | CC[C@H](C)[C@H](NC(=O)[C@H](CC(=O)O)NC(=O)[C@H](CCCCNC(=O)COCCOCCNC(=O)CCN1C(=O)CC(SC[C@H](N)C(=O)N2CCC[C@H]2C(=O)N[C@@H](C)C(=O)N[C@@H](CCCCN)C(=O)O)C1=O)NC(=O)[C@H](Cc1c[nH]cn1)NC(=O)[C@H](C)NC(=O)[C@H](Cc1ccccc1)NC(=O)[C@H](Cc1ccc(O)cc1)NC(=O)[C@@H](NC(=O)[C@H](C)NC(=O)[C@H](CCC(=O)O)NC(=O)[C@H](CCC(=O)O)NC(=O)[C@H](CC(=O)O)NC(=O)/C=C/C(=O)O)C(C)C)C(=O)N[C@H](C(=O)N[C@@H](Cc1c[nH]c2ccccc12)C(=O)O)[C@@H](C)CC (stereo partly shown) [BX-95] (Fumaroyl-DEEAVYFAHK([AEEA-X1])DIIW-OH) | 69.1 nM | – | –
3 | Fum-DEEEVYFAHKDIIW (Fumaroyl-DEEEVYFAHKDIIW) [BX-52] | – | 76.82%@10 nM | 104.49%@1 00nM
4 | Fum-DEEEVYFAHOrnDIIW [BX-59] | – | 14.7%@10n M | 117.46%@1 00nM
5 | Suc-DE cyclo(CEEC)YFAHKDIIW (Suc-DECEECYFAHKDIIW; not fully specified (bridges); printed as Suc-DE cyclo(CEEC)YFAHKDIIW; also: cyclo(CEEC) in N-terminal extension, bond type not given here) [BX-57] | – | – | 49.81%
